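In this assay, cells in 96-well plates receive the compound at five concentrations for 48 hours. Endpoints are linearly interpolated between the surrounding concentrations. GI50: concentration for 50% inhibition of growth.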 Calls of active or inactive are those of the source. Cut-off read from the data, not from the text of the source: active = GI50 up to about 1.1 µM and inactive = higher. Residues, ends and D or L forms follow the SMILES beside them.
Legend:
Assay in all cases: NCI anticancer screen, dose series, 48 h
[1] = tested on: DMS-273
[2] = tested on: HT-29
[3] = tested on: DU-145
[4] = tested on: CAKI-1
[5] = tested on: SNB-19
[6] = tested on: MCF7
[7] = tested on: HCT-116
[8] = tested on: LXFL 529
[9] = tested on: ACHN
[10] = tested on: TK-10
[11] = tested on: SK-MEL-28
[12] = tested on: MDA-N
[13] = tested on: PC-3
[14] = tested on: KM12
[15] = tested on: SK-MEL-2
[16] = tested on: A549
[17] = tested on: NCI-H226
[18] = tested on: CCRF-CEM
[19] = tested on: BT-549

Measured: GI50

C=CCNc1nc2c(s1)C(=O)c1ccccc1C2=O
inactive: [1] 9.82 µM | [2] 21.8 µM | [3] 18.6 µM | [4] 13.7 µM | [5] 14.9 µM | [6] 6.25 µM | [7] 3.81 µM | [8] 11.4 µM | [9] 7.62 µM | [10] 19.2 µM | [11] 9.71 µM | [12] 1.86 µM | [13] 12.6 µM | [14] 13.8 µM | [15] 10.9 µM | [16] 6.43 µM | [17] 21.2 µM

O=C(NC12CC3CC(CC(C3)C1)C2)C(=O)c1c[nH]c2ccc(Cl)cc12
inactive: [1] 16.8 µM | [2] 3.97 µM | [5] 26.8 µM | [7] 30.1 µM | [8] 21.8 µM | [9] 33.3 µM | [11] 35.4 µM | [14] 35.6 µM | [15] 26.7 µM | [16] > 100 µM | [18] 46.3 µM | [17] 37.4 µM

FC(F)(F)c1ccc2nc(Nc3ccc(Cl)c(Cl)c3)c(-c3ccccc3)nc2c1
inactive: [1] 6.55 µM | [2] 26 µM | [5] 74 µM | [7] 7.66 µM | [8] 8.3 µM | [9] 40.3 µM | [10] 73.1 µM | [11] 82.8 µM | [15] > 100 µM | [16] 17.1 µM | [18] 30.5 µM | [17] > 100 µM

Cc1nc2c(=O)n3c4c(cccc4c2o1)CCC3
inactive: [19] > 100 µM | [2] 76 µM | [3] > 100 µM | [4] > 100 µM | [5] > 100 µM | [6] > 100 µM | [7] 43.5 µM | [9] > 100 µM | [10] > 100 µM | [11] > 100 µM | [12] > 100 µM | [13] 45.9 µM | [14] > 100 µM | [15] > 100 µM | [16] > 100 µM | [18] > 100 µM | [17] > 100 µM

CCC(C)C(NC(=O)C1CCCN1)C(=O)NC(C(=O)NCC(=O)NC(CC(N)=O)C(=O)NC(CC(C)C)C(=O)NC(CC(C)C)C(=O)NC(CCCCN)C(N)=O)C(C)C (stereo not given) (H-PIVGNLLK-NH2; configuration not given here)
inactive: [19] > 75 µM | [2] > 75 µM | [3] > 75 µM | [4] > 75 µM | [5] > 75 µM | [6] > 75 µM | [7] > 75 µM | [9] > 75 µM | [10] > 75 µM | [11] > 75 µM | [12] > 75 µM | [13] > 75 µM | [14] > 75 µM | [15] > 75 µM | [16] > 75 µM | [18] > 75 µM | [17] > 75 µM
